Reference: US20250129081A1, “METHANOGEN INHIBITORS” (PASTORAL GREENHOUSE GAS RESEARCH LIMITED, priority 2021, published 2025)

System: rumen fluid
Experiment: Rumen in vitro (RIV) assay: methane production from incubated rumen fluid
Type: cell-based, cattle
Details: for RIV % methane reduction: 60 mL rumen fluid-buffer mixture
Protocol: The compounds of the present invention were initially screened for activity using an in vitro fully automated incubation system for the measurement of total gas production and gas composition (methane and hydrogen). The system used is described in detail in the paper by Muetzel et al. (2014; Animal Feed Science and Technology 196, 1-11). The system in this specification is referred to as the rumen in vitro system or RIV. The RIV system provides a relatively simple tool for determining the rate and production of methane and also whether the rate and production of methane is inhibited or reduced by a particular compound or feed. Rumen in vitro assays use rumen fluid from donor animals (typically either sheep or cattle) which is typically combined with a buffer and then incubated in sealed fermentation vessels at 39° C. for either 24 or 48 h. These assays systems have been well-characterised and used by the scientific community over the last two decades (Rymer et al. 2005). The system that has been used here to characterise the effects of inhibitors on methane production and gas production, and the formation of H2, was described by Muetzel et al. (2014). Rumen in vitro assay systems reflect what can occur in the rumen in vivo, but only short-term, due to their short incubation times (typically not exceeding 48 h) which is limited by its buffering capacity and the fact that it is a closed system. Stock solutions of inhibitors were re-suspended in dimethylformamide (DMF) at concentrations 1000-fold higher than the highest used for the assays. Any further dilutions were also prepared using DMF. The total amount of inhibitor solution added to the rumen fluid-buffer mixture (60 mL) was 60 μl. Incubations used 60 ml of medium containing 12 ml of filtered rumen fluid and 48 ml of buffer in serum bottles for 24-48 h, essentially as described by Muetzel et al. (2014). Two fistulated cattle were used as donor animals for rumen fluid and treatments were incubated in duplicate bottles. Sets of duplicate incubation vials that contained ryegrass (with rumen fluid-buffer mixture), and ryegrass with 30 μM bromoethanesulfonate (BES) were also incubated as negative and positive controls, respectively. One experiment consists of 2 replicates of an inhibitor at any one concentration run at the same time, and a run can contain up to 32 bottle, including positive (30 µM BES) and negative (no inhibitor added) controls. Compound 1, for example, was tested using the 60 mL rumen in vitro assay system at 30 μM, 10 μM, 2 μM and 1 μM final concentrations and compared to a positive control with 30 μM BES. […] Compound 3 was very active in the RIV and only the lower concentrations of 2 μM and 1 μM were measured.

Compound	RIV % methane reduction (1 μM compound)	RIV % methane reduction (2 μM compound)	RIV % methane reduction (10 μM compound)	RIV % methane reduction (30 μM compound)	inhibition at 2 µM (Bos taurus, 2 μM, at 18 h, 60 mL rumen in vitro assay system, read-out: inhibition level (methane))	inhibition at 30 µM (Bos taurus, 30 μM, at 18 h, 60 mL rumen in vitro assay system, read-out: inhibition level (methane))	activity in the RIV (in words) (only 2 μM and 1 μM measured)
O=c1[nH]c(=O)c2cc3c(=O)n(CCOc4no[n+]([O-])c4S(=O)(=O)c4ccccc4)c(=O)c3cc12 [Compound 1, 3-(phenylsulfonyl)-4-(2-(1,3,5,7-tetraoxo-3,5,6,7-tetrahydropyrrolo[3,4-f]isoindol-2(1H)-yl)ethoxy)-1,2,5-oxadiazole 2-oxide]	8.9%	23.3%	67.8%	87.1%	~23.3%	~87.1%	–
O=c1c2cc3c(=O)n(CO[N+](=O)[O-])c(=O)c3cc2c(=O)n1CCOc1no[n+]([O-])c1S(=O)(=O)c1ccccc1 [Compound 2, 4-(2-(6-((nitrooxy)methyl)-1,3,5,7-tetraoxo-3,5,6,7-tetrahydropyrrolo[3,4-f]isoindol-2(1H)-yl)ethoxy)-3-(phenylsulfonyl)-1,2,5-oxadiazole 2-oxide]	7.2%	30.6%	56.1%	85.9%	–	–	–
Cn1c(=O)c2cc3c(=O)n(CCOc4no[n+]([O-])c4S(=O)(=O)c4ccccc4)c(=O)c3cc2c1=O [Compound 3]	49.0%	80.4%	–	–	–	–	very active
